Results published in patent publication US20200131196A1 (Mount Tam Therapeutics, Inc., priority 2017, published 2020).
Like-named read-outs stand apart in the source and are kept apart here.

Assays:
[1] = system: AGS; experiment: OncoPanel cell proliferation assay, AGS; format: cell-based, human
Procedure: (§1) Cells were grown in RPMI 1640, 10% FBS, 2 mM L-alanyl-L-glutamine, 1 mM Na pyruvate, or a special medium. Cells were seeded into 384-well plates and incubated in a humidified atmosphere of 5% CO2 at 37° C. Compounds were added the day following cell seeding. At the same time, a time zero untreated cell plate was generated. After a 3-day incubation period, cells were fixed and stained to allow fluorescence imaging of nuclei. Compounds (1 mM stock solutions) were serially diluted in half-log steps from the highest test concentration ([…]), and assayed over 10 concentrations with a maximum assay concentration of 0.1% DMSO. Automated fluorescence microscopy was carried out using a Molecular Devices ImageXpress Micro XL high-content imager, and images were collected with a 4× objective. 16-bit TIFF images were acquired and analyzed with MetaXpress 5.1.0.41 software.
(§2) Cell proliferation was measured by the fluorescence intensity of an incorporated nuclear dye. The output is referred to as the relative cell count, where the measured nuclear intensity is transformed to percent of control (POC) using the following formula: […]
(§3) Cellular response parameters were calculated using nonlinear regression to a sigmoidal single-site dose response model:
(§4) EC50 is the test compound concentration at the curve inflection point or half the effective response (parameter C of the fitted curve solution). GI50 is the concentration needed to reduce the observed growth by half (midway between the curve maximum and the time zero value). “Cell Count Activity Area” is an estimate of the integrated area above the curve (Barretina, et al. The Cancer Cell Line Encyclopedia enables predictive modelling of anticancer drug sensitivity. Nature 483: 603-607). […] In rare instances, values <0 or >10 may be observed. […] Curve-fitting, calculations, and report generation was performed using a custom data reduction engine and MathIQ based software (AIM).

[2] = system: A388; experiment: OncoPanel cell proliferation assay, A388; format: cell-based, human
Procedure: as §1, with “Cells” for “Cells were grown in RPMI 1640, 10% FBS, 2 mM L-alanyl-L-glutamine, 1 mM Na pyruvate, or a special medium. Cells”
as §2, §3
(§5) GI50 is the concentration needed to reduce the observed growth by half (midway between the curve maximum and the time zero value). […] In rare instances, values <0 or >10 may be observed. […] Curve-fitting, calculations, and report generation was performed using a custom data reduction engine and MathIQ based software (AIM).

[3] = system: CaOV3; experiment: OncoPanel cell proliferation assay, CaOV3; format: cell-based, human
Procedure: as §1, §2, §3, §4

[4] = system: OVCAR3; experiment: OncoPanel cell proliferation assay, OVCAR3
Procedure: Cells were seeded into 384-well plates and incubated in a humidified atmosphere of 5% CO2 at 37° C. Compounds were added the day following cell seeding. At the same time, a time zero untreated cell plate was generated. After a 3-day incubation period, cells were fixed and stained to allow fluorescence imaging of nuclei. Compounds (1 mM stock solutions) were serially diluted in half-log steps from the highest test concentration (1 micromol), and assayed over 10 concentrations with a maximum assay concentration of 0.1% DMSO. Automated fluorescence microscopy was carried out using a Molecular Devices ImageXpress Micro XL high-content imager, and images were collected with a 4× objective. 16-bit TIFF images were acquired and analyzed with MetaXpress 5.1.0.41 software.

[5] = system: CEM-C1; experiment: OncoPanel cell proliferation assay, CEM-C1; format: cell-based, human
Procedure: as §1, §2, §3, §4

[6] = system: SW684; experiment: OncoPanel cell proliferation assay, SW684; format: cell-based, human
Procedure: as §1, with “Cells” for “Cells were grown in RPMI 1640, 10% FBS, 2 mM L-alanyl-L-glutamine, 1 mM Na pyruvate, or a special medium. Cells”
as §2, §3, §5

[7] = Homo sapiens, read-out: Cell Count EC50
[8] = Homo sapiens, read-out: Cell Count GI50
[9] = Homo sapiens, read-out: Cell Count IC50

For CO[C@H]1C[C@@H]2CC[C@@H](C)[C@@](O)(O2)C(=O)C(=O)N2CCCC[C@H]2C(=O)O[C@H]([C@H](C)C[C@H]2C[C@H]3C[C@@H]2C[C@@H]3O)CC(=O)[C@H](C)/C=C(\C)[C@@H](O)[C@@H](OC)C(=O)[C@H](C)C[C@H](C)/C=C/C=C/C=C/1C [Formula II, C37-[(1R,2S,4R,5S)-5-hyhroxybicyclo[2.2.1]heptane] rapamycin], the “Cell Count Activity Area” value [1] was 5.29, the “Relative cell count (%) Mean” value ([1]; 1.00E+00 microM) was 41.7% and the “Relative cell count (%) Mean” value ([1]; 1.00E-01 microM) was 44.3%. The “Relative cell count (%) Mean” value ([1]; 1.00E-02 microM) was 41.0%, the “Relative cell count (%) Mean” value ([1]; 1.00E-03 microM) was 48.7% and the “Relative cell count (%) Mean” value ([1]; 1.01E-04 microM) was 87.1%. The “Relative cell count (%) Mean” value ([1]; 3.16E-01 microM) was 40.7%, the “Relative cell count (%) Mean” value ([1]; 3.17E-02 microM) was 42.8% and the “Relative cell count (%) Mean” value ([1]; 3.17E-03 microM) was 51.4%. For the same compound, the “Relative cell count (%) Mean” value ([1]; 3.18E-04 microM) was 63.8%, the “Relative cell count (%) Mean” value ([1]; 3.18E-05 microM) was 124.5% and the EC50 [1, 7] was 0.000133 µM. For the same compound, the GI50 [1, 8] was 0.000245 µM, the IC50 [1, 9] was 0.000297 µM and the “Cell Count Activity Area” value [2] was 1.60. For the same compound, the “Relative cell count (%) Mean” value ([2]; 1.00E+00 microM) was 62.7%, the “Relative cell count (%) Mean” value ([2]; 1.00E-01 microM) was 65.6% and the “Relative cell count (%) Mean” value ([2]; 1.00E-02 microM) was 79.8%. For the same compound, the “Relative cell count (%) Mean” value ([2]; 1.00E-03 microM) was 80.8%, the “Relative cell count (%) Mean” value ([2]; 1.01E-04 microM) was 95.5% and the “Relative cell count (%) Mean” value ([2]; 3.16E-01 microM) was 62.3%. For the same compound, the “Relative cell count (%) Mean” value ([2]; 3.17E-02 microM) was 66.7%, the “Relative cell count (%) Mean” value ([2]; 3.17E-03 microM) was 79.0% and the “Relative cell count (%) Mean” value ([2]; 3.18E-04 microM) was 87.7%. For the same compound, the “Relative cell count (%) Mean” value ([2]; 3.18E-05 microM) was 86.5%, the EC50 [2, 7] was 0.00824 µM and the GI50 [2, 8] was greater than 1 µM. For the same compound, the IC50 [2, 9] was greater than 1 µM, the “Cell Count Activity Area” value [3] was 2.53 and the “Relative cell count (%) Mean” value ([3]; 1.00E+00 microM) was 57.7%. For the same compound, the “Relative cell count (%) Mean” value ([3]; 1.00E-01 microM) was 63.1%, the “Relative cell count (%) Mean” value ([3]; 1.00E-02 microM) was 73.9% and the “Relative cell count (%) Mean” value ([3]; 1.00E-03 microM) was 76.4%. For the same compound, the “Relative cell count (%) Mean” value ([3]; 1.01E-04 microM) was 98.2%, the “Relative cell count (%) Mean” value ([3]; 3.16E-01 microM) was 60.5% and the “Relative cell count (%) Mean” value ([3]; 3.17E-02 microM) was 64.6%. The “Relative cell count (%) Mean” value ([3]; 3.17E-03 microM) was 78.3%, the “Relative cell count (%) Mean” value ([3]; 3.18E-04 microM) was 76.6% and the “Relative cell count (%) Mean” value ([3]; 3.18E-05 microM) was 97.5%. It also gave an EC50 ([3]; Homo sapiens, Caov-3, read-out: Cell Count EC50) of 0.00159 µM, a GI50 ([3]; Homo sapiens, Caov-3, read-out: Cell Count GI50) of 0.0477 µM and an IC50 ([3]; Homo sapiens, Caov-3, read-out: Cell Count IC50) greater than 1 µM. For the same compound, the EC50 ([4]; Homo sapiens) was 0.043 µM, the EC50 ([4]; Homo sapiens, OVCAR-3, read-out: Cell Count EC50) was 0.0426 µM and the GI50 ([4]; Homo sapiens, OVCAR-3, read-out: Cell Count GI50) was 0.301 µM. For the same compound, the IC50 ([4]; Homo sapiens, OVCAR-3, read-out: Cell Count IC50) was greater than 1 µM, the “Cell Count Activity Area” value ([4]; OVCAR3) was 1.09 and the “Relative cell count (%) Mean” value ([4]; OVCAR3, 1.00E+00 microM) was 70.8%. The “Relative cell count (%) Mean” value ([4]; OVCAR3, 1.00E-01 microM) was 79.0%, the “Relative cell count (%) Mean” value ([4]; OVCAR3, 1.00E-02 microM) was 104.2% and the “Relative cell count (%) Mean” value ([4]; OVCAR3, 1.00E-03 microM) was 101.9%. The “Relative cell count (%) Mean” value ([4]; OVCAR3, 1.01E-04 microM) was 116.6%, the “Relative cell count (%) Mean” value ([4]; OVCAR3, 3.16E-01 microM) was 69.1% and the “Relative cell count (%) Mean” value ([4]; OVCAR3, 3.17E-02 microM) was 88.4%. The “Relative cell count (%) Mean” value ([4]; OVCAR3, 3.17E-03 microM) was 98.5%, the “Relative cell count (%) Mean” value ([4]; OVCAR3, 3.18E-04 microM) was 100.4% and the “Relative cell count (%) Mean” value ([4]; OVCAR3, 3.18E-05 microM) was 99.9%. The “Cell Count Activity Area” value [5] was 3.13, the “Relative cell count (%) Mean” value ([5]; 1.00E+00 microM) was 51.5% and the “Relative cell count (%) Mean” value ([5]; 1.00E-01 microM) was 56.2%. The “Relative cell count (%) Mean” value ([5]; 1.00E-02 microM) was 66.8%, the “Relative cell count (%) Mean” value ([5]; 1.00E-03 microM) was 82.0% and the “Relative cell count (%) Mean” value ([5]; 1.01E-04 microM) was 98.1%. The “Relative cell count (%) Mean” value ([5]; 3.16E-01 microM) was 52.4%, the “Relative cell count (%) Mean” value ([5]; 3.17E-02 microM) was 58.8% and the “Relative cell count (%) Mean” value ([5]; 3.17E-03 microM) was 73.0%. The “Relative cell count (%) Mean” value ([5]; 3.18E-04 microM) was 92.1%, the “Relative cell count (%) Mean” value ([5]; 3.18E-05 microM) was 100.6% and the EC50 [5, 7] was 0.0018 µM. For the same compound, the GI50 [5, 8] was 0.0325 µM, the IC50 [5, 9] was 0.265 µM and the “Cell Count Activity Area” value [6] was 2.97. The “Relative cell count (%) Mean” value ([6]; 1.00E+00 microM) was 49.0%, the “Relative cell count (%) Mean” value ([6]; 1.00E-01 microM) was 55.6% and the “Relative cell count (%) Mean” value ([6]; 1.00E-02 microM) was 71.4%. For the same compound, the “Relative cell count (%) Mean” value ([6]; 1.00E-03 microM) was 85.1%, the “Relative cell count (%) Mean” value ([6]; 1.01E-04 microM) was 94.1% and the “Relative cell count (%) Mean” value ([6]; 3.16E-01 microM) was 52.4%. For the same compound, the “Relative cell count (%) Mean” value ([6]; 3.17E-02 microM) was 63.3%, the “Relative cell count (%) Mean” value ([6]; 3.17E-03 microM) was 71.8% and the “Relative cell count (%) Mean” value ([6]; 3.18E-04 microM) was 86.4%. For the same compound, the “Relative cell count (%) Mean” value ([6]; 3.18E-05 microM) was 99.5%, the EC50 [6, 7] was 0.00457 µM and the GI50 [6, 8] was 0.00219 µM. The IC50 [6, 9] was 0.37 µM.
